Data taken from patent US8221992B2, “Assays for determining compounds which modulate TRAM phosphorylation” (Opsona Therapeutics Limited, priority 2005, dated 2012).
“Also recorded” adds a separate entry of the source.

Assays:
TRAM = test: Immunoblot of PKCε expressing MEF lysates with phospho-specific (Serine 16) TRAM antibody; type: cell-based; conditions: stimulation for 30 minutes (LPS 15 and 30 minutes)
Description: Fabgennix (Texas, USA), using a synthetic peptide corresponding to amino acids 7 to 21 of TRAM (KIN SCP LSL SWG KRH) with a phosphoserine incorporated instead of the serine at amino acid 16, generated and purified a phospho-specific antibody towards TRAM phosphorylated on Serine 16. The validity of the antibody was confirmed when the band predicted to the phosphorylated TRAM was not present in samples taken from TRAM-deficient MEFs (data not shown).
The phosphorylation occurred earlier in this cell type than the THP1 cells as the effect was waning by 45 minutes (lane 11) and was not evident at 60 minutes (lane 12). Levels of total TRAM were not altered in the lysates over the time course (FIG. 4c, second panel). Importantly no band was detected in lysates generated from PKCε^−/− MEFs (FIG. 4c, top panel, lane 1-6) and no bands were detected in TRAM-deficient cells attesting to the specificity of the antibody (data not shown). Finally treatment of PKCε expressing MEFs with the TLR2 ligand MALP2 or the TLR3 ligand polyI:C for 30 minutes had no effect (FIG. 4d).

GST-TRAM = test: Kinase assay: GST-TRAM pulldown with THP1 lysates, [γ32P] ATP; type: biochemical; conditions: THP1 cells treated with the stimulus before lysis
Protocol: Kinase assay: THP1 cells were seeded at 2×10^5 cells/ml in a T175 flask (Sarstedt) and incubated overnight at 37° C. The following day 30 ml of cells were treated with and without LPS in 50 ml falcon tubes (Sarstedt) for 1 hour. The cells were collected by centrifugation, washed once in PBS and lysed in 1 ml buffer (10% glycerol (v/v), 50 mM NaF, 20 mM Tris-Cl pH 8.0, 2 mM EDTA, 137 mM NaCl, 1% NP-40, 1 mM PMSF, 10 μg/ml leupeptin, 1 mM Na3VO4) for 10 minutes. The cell debris was centrifuged for 10 min at 13,000 rpm and the supernatant was removed to a fresh tube for use in the kinase assay. 50 μl of the purified GST-TRAM on the Glutathione beads was placed in an eppendorf tube and the appropriate lysate was added to the tube and incubated for 2 hours at 4° C. The beads were spun down at 2,000 rpm for 5 min and then washed three times in kinase buffer (20 mM HEPES, pH 7.5, 10 mM MgAc, 0.03% Trition, 100 μg/ml phosphotidylserine, 20 mM β-glycerol phosphate, 0.01% (w/v) leupeptin and 100 μM Na3VO4). These beads were then resuspended in 30 μl kinase buffer containing 20 μM cold ATP and 5 μCi [γ^32P] […]
TRAM is phosphorylated upon LPS stimulation: TRAM is myristoylated, and in resting cells is located in the membrane (unpublished data). […] The samples were then run on a 10% SDS-PAGE gel, transferred onto nitrocellulose and the incorporated radioactivity was measured using X-ray film. […]

Row | Substance | TRAM phosphorylation on serine 16 in PKCε expressing MEFs (TRAM) | phosphorylation of GST-TRAM by lysates of stimulated THP1 cells (GST-TRAM)
1 | MALP2 | had no effect | 
2 | PolyI:C | had no effect | phosphorylation of TRAM does not occur; also recorded: This phosphorylation did not occur
